Usually EC50 stands for the midpoint of the concentration-response curve. As a reminder, the Emax is the maximal effect, on the per cent scale that the assay sets.

The values below come from US20200002354A1, “HEXAHYDROPYRAZINOBENZ- OR -PYRIDO-OXAZEPINES CARRYING AN OXYGEN-CONTAINING SUBSTITUENT AND USE THEREOF IN THE TREATMENT OF 5-HT2C-DEPENDENT DISORDERS” (AbbVie Deutschland GmbH & Co. KG, priority 2015, published 2020).

The target in one data set is T1, human 5-HT2A receptor (Homo sapiens, UniProt P28223).
T1 construct: expressed in transfected cells; host or cells: CHO-K1
T1 sequence (P28223 whole entry): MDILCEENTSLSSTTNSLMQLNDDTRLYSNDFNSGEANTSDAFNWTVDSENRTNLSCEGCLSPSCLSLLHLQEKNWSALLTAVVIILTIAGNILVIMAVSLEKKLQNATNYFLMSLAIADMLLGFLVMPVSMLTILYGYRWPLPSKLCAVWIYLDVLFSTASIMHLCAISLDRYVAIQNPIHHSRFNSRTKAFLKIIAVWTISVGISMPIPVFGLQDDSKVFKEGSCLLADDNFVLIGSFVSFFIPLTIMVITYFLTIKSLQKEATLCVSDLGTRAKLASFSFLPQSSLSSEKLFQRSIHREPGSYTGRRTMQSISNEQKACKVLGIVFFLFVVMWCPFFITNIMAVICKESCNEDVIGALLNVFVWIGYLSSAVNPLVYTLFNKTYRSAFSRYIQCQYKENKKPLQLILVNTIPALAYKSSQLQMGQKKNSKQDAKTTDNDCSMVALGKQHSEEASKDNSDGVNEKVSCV
Kind of data set: Human 5-HT2A functional assay (calcium mobilisation in CHO-K1 cells, FLIPR). The data set is classed as cell-based. As to conditions: based on agonism: EC50 5-HT2A/EC50 5-HT2C. The procedure: 2. Human 5-HT2A Functional Assay
Functional activity on the 5-HT2A receptor was determined by testing the effect of the compounds I on calcium mobilisation in CHO-K1 cells, stably transfected with human 5-HT2A receptor. Cells were seeded into sterile black 384-well plates with clear bottom at 25,000 cells/well in a volume of 25 μl and grown for 5-6 hours at 37° C., in 5% CO2 in tissue culture medium (“Ultra CHO” by LONZA), containing 1% dialysed FCS and 50 μg/ml gentamicin (Invitrogen). After this incubation, medium was replaced by a serum free version of the same tissue culture medium followed by incubation overnight at 37° C. and in 5% CO2. Cells were then loaded with a fluorescent calcium-sensitive dye in the presence of 0.07% probenecid for an hour at 37° C., according to the manufacturer's protocol (Ca5-Assay Kit, Molecular Devices), followed by an additional 60 min incubation at room temperature. Serial compound dilutions (final concentrations of 10^−10 to 10^−5M, prepared in HBSS+50 mM HEPES) were first added to the cells alone (“first addition” to assess agonism on the 5-HT2A receptor), then after 8 min, serotonin was added to the same wells at a final concentration of 3×10^−8 M (“second addition” to see potential antagonistic effect) and the maximal calcium response was determined using a FLIPR® Tetra instrument (Molecular Devices) in each of the two steps. The relative efficacy of the compounds was calculated as a percentage of the maximal effect induced by serotonin alone (defined as 100%). To determine EC50/IC50 values, concentration-response curves were fitted using a four-parameter logistic equation (IDBS Biobookml). Kb values were calculated from IC50 values, according to Cheng & Prusoff
(In general: A change in cytosolic calcium serves as a functional read-out for many receptors and channels.)

For the next data set, the target named is T2, human 5-HT2B receptor (Homo sapiens, UniProt P41595).
T2 construct: expressed in transfected cells; host or cells: CHO-FlpIn
T2 sequence (P41595 whole entry): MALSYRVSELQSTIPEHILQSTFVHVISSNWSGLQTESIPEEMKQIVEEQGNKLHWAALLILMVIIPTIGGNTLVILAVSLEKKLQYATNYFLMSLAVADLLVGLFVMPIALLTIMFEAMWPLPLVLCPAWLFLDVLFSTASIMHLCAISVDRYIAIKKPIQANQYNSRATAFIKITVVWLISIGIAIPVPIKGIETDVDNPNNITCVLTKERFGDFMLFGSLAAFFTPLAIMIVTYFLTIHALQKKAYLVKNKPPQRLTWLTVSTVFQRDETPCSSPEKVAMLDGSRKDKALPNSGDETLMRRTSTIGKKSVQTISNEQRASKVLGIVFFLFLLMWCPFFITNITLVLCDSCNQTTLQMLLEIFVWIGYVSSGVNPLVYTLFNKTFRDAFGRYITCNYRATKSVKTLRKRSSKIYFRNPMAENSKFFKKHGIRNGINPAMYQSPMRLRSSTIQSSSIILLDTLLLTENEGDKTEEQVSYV
As to the kind of experiment: Human 5-HT2B functional assay (calcium mobilisation in CHO-FlpIn cells, FLIPR). The data set is classed as cell-based. As to conditions: based on agonism: EC50 5-HT2B/EC50 5-HT2C. Here is the method: 3. Human 5-HT2B Functional Assay
Functional activity on the 5-HT2B receptor was determined by testing the effect of the compounds I on calcium mobilisation in CHO-FlpIn cells, stably transfected with human 5-HT2B receptor. Cells were seeded into sterile black 384-well plates with clear bottom at 30,000 cells/well in a volume of 25 μl and grown overnight at 37° C., in 5% CO2 in tissue culture medium (“CHO-S-SFM II” by Invitrogen), containing 1% dialysed FCS and 50 μg/ml gentamicin (Invitrogen). On the next morning, medium was replaced by a serum free version of the same tissue culture medium for a further incubation for 4 hours at 37° C. and in 5% CO2. Cells were then loaded with a fluorescent calcium-sensitive dye in the presence of 0.07% probenecid for an hour at 37° C., according to the manufacturer's protocol (Ca5-Assay Kit, Molecular Devices), followed by an additional 60 min incubation at room temperature. Serial compound dilutions (final concentrations of 10^−10 to 10^−5M, prepared in HBSS+50 mM HEPES) were first added to the cells alone (“first addition” to assess agonism on the 5-HT2B receptor), then after 8 min, serotonin was added to the same wells at a final concentration of 10^−8 M (“second addition” to see potential antagonistic effect) and the maximal calcium response was determined using a FLIPR® Tetra instrument (Molecular Devices) in each of the two steps. The relative efficacy of the compounds was calculated as a percentage of the maximal effect induced by serotonin alone (defined as 100%). To determine EC50/IC50 values, concentration-response curves were fitted using a four-parameter logistic equation (IDBS Biobookml). Kb values were calculated from IC50 values, according to Cheng & Prusoff

The nature of data set [1]: Metabolic stability in human liver microsomes, unbound intrinsic clearance. In kind it is in vitro ADME. The following applies: liver microsomes, pH 7.4; unbound intrinsic clearance (human); Clint unbound = Cl int/fu mic; read-out: Cl int, mic unb. (h). Here is the method:
Samples of the tested compounds (0.5 μM) were preincubated together with human liver microsomes (0.25 mg of microsomal protein/mL) in 0.05 M potassium phosphate buffer of pH 7.4 in microtiter plates at 37° C. for 5 minutes. The reaction was started by adding NADPH (1.0 mM). After 0, 5, 10, 15, 20 and 30 minutes, an aliquot was removed, the reaction was cooled and stopped by adding twice the amount of quench solution consisting of acetonitrile/methanol 1:1, and containing 0.2 μM carbutamide as internal standard. The samples were frozen until analyzed. The remaining concentration of undegraded test substance was determined by liquid chromatography-tandem mass spectrometry (LC-MS/MS). The half-life (t1/2) was determined from the gradient of the ratio of the signal of (test substance/internal standard)/unit time plot, allowing the calculation of the half-life of the test substance, assuming first order kinetics, from the decrease in the concentration of the compound with time. The microsomal clearance (mClint) was calculated as follows: mClint=((ln(2)/t ½)/Microsomal Protein Concentration (mg/ml))*1000, leading to the unit of uL/min/mg. The scaled clearance (mClin_scaled) was calculated as mCLint_scaled=m CLint*(Microsomal Yield (mg/kg BW))/1000000*60, leading to the units L/h/kg. The Microsomal Yield is defined by the specifics of the used microsomes. Calculations were modified from references: Di, The Society for Biomolecular Screening, 2003, 453-462; Obach, D M D, 1999 vol 27. N 11, 1350-1359.
Calculation of Unbound Intrinsic Clearance
C1int unbound=C1 int/fu mic
On the technique in general: Microsomes from liver hold many membrane-bound enzymes, among them those of drug oxidation.

For the next data set, the target named is T3, 5-HT2C receptor (Homo sapiens, UniProt P28335).
T3 construct: host or cells: U2OS
T3 sequence (P28335 33-458): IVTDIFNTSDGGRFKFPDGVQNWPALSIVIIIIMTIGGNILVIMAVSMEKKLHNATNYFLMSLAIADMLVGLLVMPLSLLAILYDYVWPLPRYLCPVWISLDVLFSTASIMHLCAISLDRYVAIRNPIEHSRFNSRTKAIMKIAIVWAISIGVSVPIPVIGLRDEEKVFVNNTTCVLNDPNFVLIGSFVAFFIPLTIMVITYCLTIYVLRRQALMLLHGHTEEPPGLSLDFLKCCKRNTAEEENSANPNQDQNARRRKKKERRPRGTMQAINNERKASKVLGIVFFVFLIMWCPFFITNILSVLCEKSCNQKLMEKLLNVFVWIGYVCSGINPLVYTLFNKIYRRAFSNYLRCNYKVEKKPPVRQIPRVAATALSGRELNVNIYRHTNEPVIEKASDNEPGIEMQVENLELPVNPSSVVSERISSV
T3 sequence (P32121 whole entry partner): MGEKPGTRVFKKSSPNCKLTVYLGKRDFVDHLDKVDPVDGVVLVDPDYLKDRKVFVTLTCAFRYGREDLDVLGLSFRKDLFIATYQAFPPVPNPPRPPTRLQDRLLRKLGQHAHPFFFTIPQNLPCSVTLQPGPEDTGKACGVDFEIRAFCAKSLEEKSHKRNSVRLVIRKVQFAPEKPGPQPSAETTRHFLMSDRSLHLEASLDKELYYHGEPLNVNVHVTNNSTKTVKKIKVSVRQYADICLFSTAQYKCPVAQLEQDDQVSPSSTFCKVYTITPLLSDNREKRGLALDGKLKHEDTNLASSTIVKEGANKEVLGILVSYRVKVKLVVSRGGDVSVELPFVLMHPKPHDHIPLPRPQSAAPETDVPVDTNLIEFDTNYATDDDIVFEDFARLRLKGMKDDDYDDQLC
As to the kind of experiment: Human 5-HT2C functional assay (beta-arrestin2 recruitment, U2OS_HTR2C_β-Arrestin cells). As to conditions: for EC50: Potency (EC50 5-HT2C) in functional assay, agonism, read-out: EC50 5-HT2C; for Emax: relative efficacy vs maximal effect induced by 5-HT (defined as 100%). In kind it is cell-based. Here is the method:
1. Human 5-HT2C Functional Assay
The functional activity of compounds of formula I was assayed by incubation with U2OS_HTR2C_β-Arrestin cells (DiscoverX, 93-0289C3) to induce beta-arrestin2 recruitment to the 5-HT2C receptor. The agonist-induced recruitment and proximity of the receptor and beta-arrestin2 leads to complementation and formation of active β-galactosidase. The enzyme complementation results in enzyme activity, which is measured following the termination of the agonist incubation using DiscoveRx's detection reagent, which contains a chemiluminescent substrate which produces a high intensity signal. Cells were plated and a medium-change to a 1% serum containing medium was performed 24 h later. The next day, test compounds were added and incubated for 1.5 h before addition of detection reagent.
The response produced was measured and compared with the response produced by 10 [mu]M 5-HT or the maximal effect induced by 5-HT (defined as 100%) to which it was expressed as a percentage response (relative efficacy).
(Activated receptors often draw arrestin, which recruitment assays turn into a signal.)

Consider `COC[C@@H]1C[C@@H]2CNCCN2c2cccc(C#N)c2O1.Cl` [Example 12, (4aR,6S)-6-(Methoxymethyl)-2,3,4,4a,5,6-hexahydro-1H-pyrazino[2,1-d][1,5]benzoxazepine-8-carbonitrile hydrochloride], for which the “Selectivity over 5-HT2A” value on human 5-HT2A receptor is given as “+++ (>100)”. On human 5-HT2B receptor, the “Selectivity over 5-HT2B” value is reported as “+ (from 10 to 30)”. The CLint scaled at 0.5 μM in data set [1] was 83.3 to 833 mL/min/kg. On 5-HT2C receptor, the 50% effective concentration (EC50) was 0.02 to 0.2 µM and the maximal response (Emax) was above 70%.

Consider `COC[C@@H]1C[C@@H]2CNCCN2c2cc(F)cc(C#N)c2O1.Cl` [Example 13, (4aR,6S)-10-Fluoro-6-(methoxymethyl)-2,3,4,4a,5,6-hexahydro-1H-pyrazino[2,1-d][1,5]benzoxazepine-8-carbonitrile hydrochloride], for which, on human 5-HT2A receptor, the “Selectivity over 5-HT2A” value is recorded as “+++ (>100)”. The “Selectivity over 5-HT2B” value on human 5-HT2B receptor is given as “++ (from >30 to 100)”. For the same compound, in data set [1], the CLint scaled at 0.5 μM was below 83.3 mL/min/kg. On 5-HT2C receptor, the EC50 lay within 0.02 to 0.2 µM and the Emax was above 70%.

As to `COC[C@@H]1C[C@@H]2CNCCN2c2c(F)ccc(Cl)c2O1.O=C(O)/C=C/C(=O)O` [Example 15, (4aR,6S)-8-Chloro-11-fluoro-6-(methoxymethyl)-2,3,4,4a,5,6-hexahydro-1H-pyrazino[2,1-d][1,5]benzoxazepine; fumaric acid], the “Selectivity over 5-HT2A” value on human 5-HT2A receptor is reported as “+++ (>100)”. The “Selectivity over 5-HT2B” value on human 5-HT2B receptor is reported as “+++ (>100)”. In addition, the CLint scaled at 0.5 μM in data set [1] is below 83.3 mL/min/kg. Also, on 5-HT2C receptor, the EC50 is below 0.02 µM and the Emax is above 70%.

Take `COC[C@@H]1C[C@@H]2CNCCN2c2c(F)c(F)cc(Cl)c2O1.Cl` [Example 16, (4aR,6S)-8-Chloro-10,11-difluoro-6-(methoxymethyl)-2,3,4,4a,5,6-hexahydro-1H-pyrazino[2,1-d][1,5]benzoxazepine hydrochloride]: on human 5-HT2A receptor, the “Selectivity over 5-HT2A” value is given as “+++ (>100)”. Further, the “Selectivity over 5-HT2B” value at human 5-HT2B receptor was “+++ (>100)”. Besides, in data set [1], the CLint scaled at 0.5 μM was below 83.3 mL/min/kg. Also, at 5-HT2C receptor, the 50% effective concentration (EC50) was below 0.02 µM and the Emax is above 70%.

`COC[C@@H]1C[C@@H]2CNCCN2c2c(F)c(F)cc(F)c2O1.O=C(O)/C=C/C(=O)O` [Example 18, (4aR,6S)-8,10,11-Trifluoro-6-(methoxymethyl)-2,3,4,4a,5,6-hexahydro-1H-pyrazino[2,1-d][1,5]benzoxazepine; fumaric acid]: at human 5-HT2A receptor, the “Selectivity over 5-HT2A” value is given as “+++ (>100)”. Besides, the “Selectivity over 5-HT2B” value on human 5-HT2B receptor is listed as “+++ (>100)”. The CLint scaled at 0.5 μM in data set [1] is below 83.3 mL/min/kg. Moreover, at 5-HT2C receptor, the 50% effective concentration (EC50) lay within 0.02 to 0.2 µM and the Emax is above 70%.

Consider `Cl.[2H]C([2H])([2H])OC[C@@H]1C[C@@H]2CNCCN2c2cc(F)cc(Cl)c2O1` [Example 19, (4aR,6S)-8-Chloro-10-fluoro-6-(trideuteriomethoxymethyl)-2,3,4,4a,5,6-hexahydro-1H-pyrazino[2,1-d][1,5]benzoxazepine hydrochloride], for which the “Selectivity over 5-HT2A” value at human 5-HT2A receptor is listed as “+++ (>100)”. At human 5-HT2B receptor, the “Selectivity over 5-HT2B” value is “++ (from >30 to 100)”. The CLint scaled at 0.5 μM in data set [1] was below 83.3 mL/min/kg. Further, at 5-HT2C receptor, the EC50 is below 0.02 µM and the Emax is above 70%.

With `COC[C@@H]1C[C@@H]2CNCCN2c2c(ccc(F)c2F)O1.Cl` [Example 21, (4aR,6S)-10,11-Difluoro-6-(methoxymethyl)-2,3,4,4a,5,6-hexahydro-1H-pyrazino[2,1-d][1,5]benzoxazepine hydrochloride], at human 5-HT2A receptor, the “Selectivity over 5-HT2A” value is “++ (from >30 to 100)”. On human 5-HT2B receptor, the “Selectivity over 5-HT2B” value is reported as “++ (from >30 to 100)”. Moreover, the CLint scaled at 0.5 μM in data set [1] is below 83.3 mL/min/kg. For the same compound, on 5-HT2C receptor, the EC50 was in the range of 0.02 to 0.2 µM and the maximum response (Emax) lay in the range of 30 to 50%.

With `COC[C@@H]1C[C@@H]2CNCCN2c2cc(F)cc(C(F)(F)F)c2O1.Cl` [Example 22, (4aR,6S)-10-Fluoro-6-(methoxymethyl)-8-(trifluoromethyl)-2,3,4,4a,5,6-hexahydro-1H-pyrazino[2,1-d][1,5]benzoxazepine hydrochloride], at human 5-HT2A receptor, the “Selectivity over 5-HT2A” value is “+++ (>100)”. At human 5-HT2B receptor, the “Selectivity over 5-HT2B” value was “++ (from >30 to 100)”. For the same compound, the CLint scaled at 0.5 μM in data set [1] was below 83.3 mL/min/kg. At 5-HT2C receptor, the 50% effective concentration (EC50) was below 0.02 µM and the Emax is above 70%.

`Cl.Fc1cc(Cl)c2c(c1)N1CCNC[C@H]1C[C@@H](COC(F)F)O2` [Example 24, (4aR,6S)-8-Chloro-6-(difluoromethoxymethyl)-10-fluoro-2,3,4,4a,5,6-hexahydro-1H-pyrazino[2,1-d][1,5]benzoxazepine hydrochloride]: the “Selectivity over 5-HT2A” value on human 5-HT2A receptor is “+++ (>100)”. In addition, at human 5-HT2B receptor, the “Selectivity over 5-HT2B” value is recorded as “++ (from >30 to 100)”. Also, in data set [1], the CLint scaled at 0.5 μM is 83.3 to 833 mL/min/kg. In addition, on 5-HT2C receptor, the half-maximal effective concentration (EC50) lay within 0.02 to 0.2 µM and the maximum response (Emax) fell in the range of 50 to 70%.

As for `COC[C@@H]1C[C@@H]2CNCCN2c2c(F)c(F)cc(C(F)F)c2O1.Cl` [Example 26, (4aR,6S)-8-(Difluoromethyl)-10,11-difluoro-6-(methoxymethyl)-2,3,4,4a,5,6-hexahydro-1H-pyrazino[2,1-d][1,5]benzoxazepine hydrochloride], at human 5-HT2A receptor, the “Selectivity over 5-HT2A” value is given as “+++ (>100)”. On human 5-HT2B receptor, the “Selectivity over 5-HT2B” value is recorded as “+++ (>100)”. The CLint scaled at 0.5 μM in data set [1] was below 83.3 mL/min/kg. For the same compound, on 5-HT2C receptor, the EC50 is below 0.02 µM and the Emax was above 70%.
